Experiments:
[1] = system: P. falciparum (FVO isolate); assay: Antimalaria activity of G25 in Aotus lemurinus monkey infected by P. falciparum FVO isolate; type: in vivo
From the text: Besides chimpanzees, only two South American monkey species, Aotus and Saimiri seirius, can be infected by P. falciparum. Currently, infection of Aotus monkeys with the human parasite is the best, and quasi-unique, model for evaluating therapeutic or vaccinal interventions against malaria (Collins W. E., Gallaud C. G., Sullivan J. S., and Morris C. L., "Selections of different strains of Plasmodium falciparum for testing blood stages in Aotus nancymal monkeys" An. J. Trop. Med. Hyg., 1994, 51 (2) 224-232).
The antimalaria activity was thus evaluated in the Aotus lemurinus monkey infected by the FVO (falciparum Vietnam Oaknoll) isolate of P. falciparum. This isolate is chloroquine-resistant and inevitably lethal for Aotus monkeys at the "Fundacion Centro de Primates" at the University del Valle, Cali, Colombia.
Treatment with G25 (dissolved in 0.9% NaCl) was initiated when the parasitemia reached 5.6%; 16 doses (0.2 mg/kg b.i.d. for 8 days) were given. […] The parasitemia in a monkey treated by combination sulfadoxine/pyrimethamine (FANSIDAR) is given for comparison.
In all, 15 monkeys were infected, then treated with G25 given by intramuscular injections at doses ranging from 0.010 to 0.2 mg/kg.

[2] = Maximal tolerable dose and therapeutic index in the monkey; conditions: in vivo
[3] = system: Plasmodium vinckei, petterei or chabaudi; assay: Therapeutic index in infected mice (antimalaria activity compared with semi-chronic toxicity); type: in vivo; conditions: i.p. or s.c., twice a day for four days, ratio of activity over toxicity (LD50)
Procedure: In order to evaluate the therapeutic index of the different products, the activity of these products was tested in vivo and compared with […] toxicity in animals. This activity was measured using the test described by PETERS W. (Chemotherapy and Drug resistance in Malaria, 1970). A compound was administered for four consecutive days to mice previously infected with Plasmodium vinckei, petterei or chabaudi. The said compound was dissolved in a 0.9% NaCl solution. The preparations were thus administered intraperitoneally or subcutaneously in male Swiss mice infected by intravenous injection of Plasmodium petterei or Plasmodium chadaudi (10^6 infected cells). The compound was administered twice a day for four consecutive days, the first injection being performed two hours after the infestation and the second, 10 hours later. The parasitemia was determined on blood smears the day after the end of treatment. Toxicity was measured in vivo following the same schedule, the animals having received, under the same administration conditions as above, two injections per day for four days (semi-chronic toxicity). The results are expressed in lethal dose 50 (LD50), i.e. the dose causing death in 50% of the animals.
The results of these trials are summarized in Table I, below, and expressed as therapeutic index, or the ratio of activity over toxicity measured under the identical conditions described above.

[4] = system: Babesia bovis, Babesia canis; assay: In vitro antibabesia activity, (3H) hypoxanthine incorporation; type: cell-based; conditions: score from ED50 of (3H) hypoxanthine incorporation
From the text: The screening process for antimalaria activity, based on parasite incorporation of (^3 H) hypoxanthine was used to test the antimetabolic activity of such components against Babesia bovis, Babesia canis. A tight relationship was found between the rate of (^3 H) hypoxanthine incorporation using standard measurements and the percentage of parasitized cells determined by microscopy. […] The score was ++ for the same activity at a concentration of 0.01 to 0.1 micromoles and finally + for a concentration under or equal to 1 micromole.

| Structure (SMILES) | Decline in parasitemia ([1]; FVO isolate, 0.2 mg/kg b.i.d. for 8 days, treatment started at 5.6% parasitemia) | minimal effective dose ([1]; Plasmodium falciparum, in Primates, im, 4380 h, intramuscular, 6 months follow-up, read-out: Lowest dose with complete cure (validated by PCR), no recurrences) | Activity at 0.01 mg/kg ([1]; intramuscular, 0.01 mg/kg) | MTD [2] | selectivity ratio ([2]; read-out: therapeutic index (LD50/ED50) in the monkey) | Therapeutic index [3] | Antibabesia activity at 10 millimoles [4] |
| --- | --- | --- | --- | --- | --- | --- | --- |
| C[N+]1(CCCCCCCCCCCCCCCC[N+]2(C)CCCC2)CCCC1 [Example G25] | decline in parasitemia was evident at the second dose | 0.03 mg/kg | active (parasite clearance) but did not lead to complete cure (recurrence observed) | ~1.5 mg/kg | > 50 |  |  |
| CCC[N+](CCC)(CCC)CCCCCCCCCCCCCCCC[N+](CCC)(CCC)CCC.[Br-].[Br-] [EXAMPLE 12, N,N,N,N',N',N'-hexapropyl-1,16-hexadecanediaminium dibromide] |  |  |  |  |  | 11 | ++ (the same activity at a concentration of 0.01 to 0.1 micromoles) |
| CCC[N+](CCC)(CCC)CCCCCCCCCCCCCCCC[N+](CCC)(CCC)CCC.[Br-].[Br-] [EXAMPLE 9, N,N,N,N',N',N'-hexapropyl-1,16-hexadecanediaminium dibromide] |  |  |  |  |  | 36 | +++ (a 50% inhibition of (^3 H) hypoxanthine incorporation (ED50), these molecules having a concentration less than or equal to 0.01 micromoles) |
| C[N+]1(CCCCCCCCCCCCCCCC[N+]2(C)CCCC(CO)C2)CCCC(CO)C1 (stereo not shown) [EXAMPLE 20] |  |  |  |  |  | 17 | +++ (a 50% inhibition of (^3 H) hypoxanthine incorporation (ED50), these molecules having a concentration less than or equal to 0.01 micromoles) |
| C[N+]1(CCCCCCCCCCCCCC[N+]2(C)CCCC2CO)CCCC1CO (stereo not shown) [EXAMPLE 18, 1,1'-(1,14-tetradecanediyl)bis(2-hydroxymethl-1-methylpyrrolidium) dibromide] |  |  |  |  |  | 22 | +++ (a 50% inhibition of (^3 H) hypoxanthine incorporation (ED50), these molecules having a concentration less than or equal to 0.01 micromoles) |
